Assay results as given in patent publication EP3915546A1, “USE OF ACID AS SOLVENT FOR PRECIPITATIONS” (leon-nanodrugs GmbH, priority 2020, dated 2021).
Values belong to the compound of their own block, whether it stands above or below them.

Tests used:
Format in all cases: physicochemical
[1] = Microscopy of the suspension after precipitation in a MikroJetReaktor (particle growth)
Procedure: • Figur 1: Mikroskopische Aufnahme von ENZ, entstanden durch Mischen von 1 Teil einer Lösung von 100 mg/ml ENZ in Aceton mit 1 Teil Wasser. Maßstab: Der Balken im Bild entspricht 20 µm. (a) Aufnahme unmittelbar nach Fällung. (b) Aufnahme ca. 12 Stunden nach der Fällung. • Figur 2: Mikroskopische Aufnahme von ENZ-Partikeln. Entstanden durch Mischen von 1 Teil einer Lösung von 100 mg/ml ENZ in Eisessig mit 10 Teilen Wasser. Maßstab: Der Balken im Bild entspricht 20 µm. (a) Aufnahme ca. 1 Stunde nach Fällung. (b) Aufnahme ca. 18 Stunden nach der Fällung.
100 mg Enzalutamide werden unter Rühren in 1 ml Aceton bei Raumtemperatur gelöst (100 mg/ml). Diese Lösung wird in einem MikroJetReaktor mit Wasser gemischt in einem Mischungsverhältnis von 1 Teil Enzalutamide in Aceton zu 1,01 Teilen Wasser. Die erhaltene Suspension wird mikroskopiert (Figur. 1).
100 mg Enzalutamide werden unter Rühren in 1 ml Eisessig bei Raumtemperatur gelöst (100 mg/ml). Diese Lösung wird in einem MikroJetReaktor mit Wasser gemischt in einem Mischungsverhältnis von 1 Teil Enzalutamide in Eisessig zu 10 Teilen Wasser. Die erhaltene Suspension wird mikroskopiert (Figur 3).

[2] = Thermodynamic saturation solubility in solvents and their mixtures with water (24 h stirring at room temperature, HPLC)
Procedure: Zur Bestimmung der thermodynamischen Sättigungslöslichkeit einer Substanz in einem bestimmten Lösungsmittel wird zunächst zur Orientierung eine Literaturrecherche durchgeführt, um einen ersten groben Richtwert zu erhalten. Danach wurden 500 mg (und gegebenenfalls mehr) des Wirkstoffpulvers eingewogen und in 5 ml des Lösungsmittels unter leichtem Rühren suspendiert. Falls das Pulver vollständig in Lösung ging, wurde zusätzlich 100 mg (oder iterative nochmalige Zugabe der initial eingewogenen Menge) Feststoff zugesetzt. Dies wurde wiederholt, bis sich ein Bodensatz bildete.
Die feststoff-enthaltende Mischung wurde verschlossen und 24 Stunden bei Raumtemperatur gerührt. Nach 24 Stunden wurde der Überstand von Bodensatz getrennt, zentrifugiert (Filtration ist nahezu unmöglich) und zur Quantifizierung mit der mobilen Phase der HPLC-Methode verdünnt.
Ein weiterer Teil des zentrifugierten Überstandes wurde unter Rühren mit demineralisiertem Wasser im Volumenverhältnis von 1:1 gemischt. Dazu wurde Wasser vorgelegt und die Wirkstofflösung unter Rühren oder Schütteln zu pipettiert. Dabei fiel Wirkstoff aus. Der Überstand wurde nach 3 Stunden von Bodensatz getrennt, zentrifugiert und zur Quantifizierung mittels HPLC verdünnt. Der Verdünnungsschritt wird grob abgeschätzt, Zielkonzentration sind z. B. 100 µg/mL je nach Wirkstoff, um im Linearitätsbereich des Detektors zu bleiben. Liegt die Konzentration zu hoch oder zu niedrig wird der Verdünnungsschritt angepasst. Die Verdünnung erfolgte mit einem zu mobilen Phase kompatiblen Lösungsmittelgemisch (z. B. Methanol vorlegen, Probe zugeben, Wasser zugeben). Falls die Substanz in diesem Lösungsmittelgemisch in dieser Verdünnung nicht löslich war, wurde die Verdünnung mit reinem organischem Lösungsmittel wiederholt.
Dieses Vorgehen wurde für die Mischungsverhältnisse von 1:2, 1:3 und 1:10 wiederholt.

[3] = Precipitation with water: total concentration in suspension and share dissolved in the mother liquor
Procedure: Für die pharmazeutische Weiterverarbeitung der Suspension zu einem Arzneimittel ist es wünschenswert, eine Wirkstoffkonzentration von mehr als 50 mg/ml zu erzeugen. Tabelle 4: Erzeugung von ENZ Partikeln durch Fällung. Gesamtkonzentration an ENZ in der Suspension (mg/ml) und der Anteil (%) des in der Mutterlauge gelösten ENZ
Wird eine Lösung von 100 mg/ml Enzalutamide in Aceton mit gleichem Teil an Wasser gemischt, so fällt ein Großteil des Enzalutamides aus, da dessen Sättigungskonzentration überschritten wird. Die resultierende Mischung enthält 50% Aceton und eine Gesamtmenge von 50 mg/ml Enzalutamide. Davon werden 7,87 mg/ml in der Mutterlauge gelöst vorliegen (Tabelle 3, Nr. 2, Aceton); dies entspricht 15,7 % der Gesamtmenge von 50 mg/ml (Tabelle 4, Nr. 2, Aceton). Diese gelöste Menge an Enzalutamide (15,7 % der Gesamtmenge) ist zu hoch und führt zu einem unerwünschten und schnellen Wachstum der Partikel.

[4] = Aceton, Lösungsmittel-Gehalt der Mischung 100 %
[5] = Aceton/Wasser, Lösungsmittel-Gehalt der Mischung 25 %
[6] = Aceton/Wasser, Lösungsmittel-Gehalt der Mischung 33,3 %
[7] = Aceton/Wasser, Lösungsmittel-Gehalt der Mischung 50 %
[8] = Eisessig, Lösungsmittel-Gehalt der Mischung 100 %
[9] = Eisessig/Wasser, Lösungsmittel-Gehalt der Mischung 9,09 %
[10] = Eisessig/Wasser, Lösungsmittel-Gehalt der Mischung 25 %
[11] = Eisessig/Wasser, Lösungsmittel-Gehalt der Mischung 33,3 %
[12] = Eisessig/Wasser, Lösungsmittel-Gehalt der Mischung 50 %
[13] = THF, Lösungsmittel-Gehalt der Mischung 100 %
[14] = THF/Wasser, Lösungsmittel-Gehalt der Mischung 25 %
[15] = THF/Wasser, Lösungsmittel-Gehalt der Mischung 33,3 %
[16] = THF/Wasser, Lösungsmittel-Gehalt der Mischung 50 %
[17] = Aceton/Wasser, Lösungsmittel-Gehalt der Mischung 9,09 %
[18] = Ameisensäure/Wasser, Lösungsmittel-Gehalt der Mischung 9,09 %
[19] = Ethanol, Lösungsmittel-Gehalt der Mischung 100 %
[20] = Ethanol/Wasser, Lösungsmittel-Gehalt der Mischung 9,09 %
[21] = Ethanol/Wasser, Lösungsmittel-Gehalt der Mischung 25 %
[22] = Ethanol/Wasser, Lösungsmittel-Gehalt der Mischung 33,3 %
[23] = Ethanol/Wasser, Lösungsmittel-Gehalt der Mischung 50 %
[24] = THF/Wasser, Lösungsmittel-Gehalt der Mischung 9,09 %

- Sättigungslöslichkeit von ENZ [2, 4]: 358 mg/mL
- Sättigungslöslichkeit von ENZ [2, 5]: 0,233 mg/ml
- Sättigungslöslichkeit von ENZ [2, 6]: 0,537 mg/ml
- Sättigungslöslichkeit von ENZ [2, 7]: 7,87 mg/ml
- Sättigungslöslichkeit von ENZ [2, 8]: 155,4 mg/ml
- Sättigungslöslichkeit von ENZ [2, 9]: 0,086 mg/ml
- Sättigungslöslichkeit von ENZ [2, 10]: 0,112 mg/ml
- Sättigungslöslichkeit von ENZ [2, 11]: 0,294 mg/ml
- Sättigungslöslichkeit von ENZ [2, 12]: 2,044 mg/ml
- Sättigungslöslichkeit von ENZ ([2]; Eisessig/Wasser, Lösungsmittel-Gehalt der Mischung 50 %, listed as Enzalutamide): 2,04 mg/ml
- Sättigungslöslichkeit von ENZ [2, 13]: 364 mg/mL
- Sättigungslöslichkeit von ENZ [2, 14]: 0,365 mg/ml
- Sättigungslöslichkeit von ENZ [2, 15]: 2,68 mg/ml
- Sättigungslöslichkeit von ENZ [2, 16]: 16,9 mg/ml
- ENZ in Lösung bei Fällung aus (% der Gesamtmenge in Suspension) ([3]; Aceton, Lösungsmittel-Gehalt der Suspension 100 %, ENZ in Suspension 100 mg/ml): 100%
- ENZ in Lösung bei Fällung aus (% der Gesamtmenge in Suspension) ([3]; Eisessig, Lösungsmittel-Gehalt der Suspension 100 %, ENZ in Suspension 100 mg/ml): 100%
- ENZ in Lösung bei Fällung aus (% der Gesamtmenge in Suspension) ([3]; Fällung aus Aceton with Wasser, Lösungsmittel-Gehalt der Suspension 25 %, ENZ in Suspension 25 mg/ml): 0,93%
- ENZ in Lösung bei Fällung aus (% der Gesamtmenge in Suspension) ([3]; Fällung aus Aceton with Wasser, Lösungsmittel-Gehalt der Suspension 33,3 %, ENZ in Suspension 33,3 mg/ml): 1,61%
- ENZ in Lösung bei Fällung aus (% der Gesamtmenge in Suspension) ([3]; Fällung aus Aceton with Wasser, Lösungsmittel-Gehalt der Suspension 50 %, ENZ in Suspension 50 mg/ml): 15,7%
- ENZ in Lösung bei Fällung aus (% der Gesamtmenge in Suspension) ([3]; Fällung aus Eisessig with Wasser, Lösungsmittel-Gehalt der Suspension 9,09 %, ENZ in Suspension 9,1 mg/ml): 0,95%
- ENZ in Lösung bei Fällung aus (% der Gesamtmenge in Suspension) ([3]; Fällung aus Eisessig with Wasser, Lösungsmittel-Gehalt der Suspension 25 %, ENZ in Suspension 25 mg/ml): 0,45%
- ENZ in Lösung bei Fällung aus (% der Gesamtmenge in Suspension) ([3]; Fällung aus Eisessig with Wasser, Lösungsmittel-Gehalt der Suspension 33,3 %, ENZ in Suspension 33,3 mg/ml): 0,88%
- ENZ in Lösung bei Fällung aus (% der Gesamtmenge in Suspension) ([3]; Fällung aus Eisessig with Wasser, Lösungsmittel-Gehalt der Suspension 50 %, ENZ in Suspension 50 mg/ml): 4,09%
- ENZ in Lösung bei Fällung aus (% der Gesamtmenge in Suspension) ([3]; Fällung aus THF with Wasser, Lösungsmittel-Gehalt der Suspension 25 %, ENZ in Suspension 25 mg/ml): 1,46%
- ENZ in Lösung bei Fällung aus (% der Gesamtmenge in Suspension) ([3]; Fällung aus THF with Wasser, Lösungsmittel-Gehalt der Suspension 33,3 %, ENZ in Suspension 33,3 mg/ml): 8,04%
- ENZ in Lösung bei Fällung aus (% der Gesamtmenge in Suspension) ([3]; Fällung aus THF with Wasser, Lösungsmittel-Gehalt der Suspension 50 %, ENZ in Suspension 50 mg/ml): 33,8%
- ENZ in Lösung bei Fällung aus (% der Gesamtmenge in Suspension) ([3]; THF, Lösungsmittel-Gehalt der Suspension 100 %, ENZ in Suspension 100 mg/ml): 100%
Compound: CNC(=O)c1ccc(N2C(=S)N(c3ccc(C#N)c(C(F)(F)F)c3)C(=O)C2(C)C)cc1F [ENZ, Enzalutamid]
- Particles seen by microscopy after precipitation ([1]; 100 mg/ml in Aceton mixed with 1,01 Teilen Wasser in a MikroJetReaktor): Mikropartikel, die innerhalb von 12 Stunden zu großen Nadeln wachsen
- Particles seen by microscopy after precipitation ([1]; 100 mg/ml in Eisessig mixed with 10 Teilen Wasser in a MikroJetReaktor): im Vergleich zu Aceton deutlich kleinere Partikel, die in Laufe von 18 Stunden zu Nadeln wachsen

Compound: CCC(C)n1ncn(-c2ccc(N3CCN(c4ccc(OCC5COC(Cn6cncn6)(c6ccc(Cl)cc6Cl)O5)cc4)CC3)cc2)c1=O (centres unmarked) [ITZ, Itraconazol]
- Sättigungslöslichkeit von ITZ [2, 4]: 2,500 mg/ml
- Sättigungslöslichkeit von ITZ relativ zu der Sättigungslöslichkeit im Lösungsmittel [2, 4]: 100%
- Sättigungslöslichkeit von ITZ [2, 17]: 0,0001 mg/ml
- Sättigungslöslichkeit von ITZ relativ zu der Sättigungslöslichkeit im Lösungsmittel [2, 17]: 0,004%
- Sättigungslöslichkeit von ITZ [2, 5]: 0,002 mg/ml
- Sättigungslöslichkeit von ITZ relativ zu der Sättigungslöslichkeit im Lösungsmittel [2, 5]: 0,09%
- Sättigungslöslichkeit von ITZ [2, 6]: 0,008 mg/ml
- Sättigungslöslichkeit von ITZ relativ zu der Sättigungslöslichkeit im Lösungsmittel [2, 6]: 0,34%
- Sättigungslöslichkeit von ITZ [2, 7]: 0,038 mg/ml
- Sättigungslöslichkeit von ITZ relativ zu der Sättigungslöslichkeit im Lösungsmittel [2, 7]: 1,53%
- Sättigungslöslichkeit von ITZ ([2]; Ameisensäure, Lösungsmittel-Gehalt der Mischung 100 %): 435 mg/mL
- Sättigungslöslichkeit von ITZ [2, 18]: 0,01 mg/ml
- Sättigungslöslichkeit von ITZ relativ zu der Sättigungslöslichkeit im Lösungsmittel [2, 18]: 0,002%
- Sättigungslöslichkeit von ITZ [2, 8]: 157,8 mg/ml
- Sättigungslöslichkeit von ITZ relativ zu der Sättigungslöslichkeit im Lösungsmittel [2, 8]: 100%
- Sättigungslöslichkeit von ITZ [2, 9]: 0,028 mg/ml
- Sättigungslöslichkeit von ITZ relativ zu der Sättigungslöslichkeit im Lösungsmittel [2, 9]: 0,02%
- Sättigungslöslichkeit von ITZ [2, 10]: 0,009 mg/ml
- Sättigungslöslichkeit von ITZ relativ zu der Sättigungslöslichkeit im Lösungsmittel [2, 10]: 0,01%
- Sättigungslöslichkeit von ITZ [2, 11]: 0,210 mg/ml
- Sättigungslöslichkeit von ITZ relativ zu der Sättigungslöslichkeit im Lösungsmittel [2, 11]: 0,13%
- Sättigungslöslichkeit von ITZ [2, 12]: 1,455 mg/ml
- Sättigungslöslichkeit von ITZ relativ zu der Sättigungslöslichkeit im Lösungsmittel [2, 12]: 0,92%
- Sättigungslöslichkeit von ITZ [2, 19]: 0,289 mg/ml
- Sättigungslöslichkeit von ITZ relativ zu der Sättigungslöslichkeit im Lösungsmittel [2, 19]: 100%
- Sättigungslöslichkeit von ITZ [2, 20]: 0,009 mg/ml
- Sättigungslöslichkeit von ITZ relativ zu der Sättigungslöslichkeit im Lösungsmittel [2, 20]: 2,95%
- Sättigungslöslichkeit von ITZ [2, 21]: 0,006 mg/ml
- Sättigungslöslichkeit von ITZ relativ zu der Sättigungslöslichkeit im Lösungsmittel [2, 21]: 2,08%
- Sättigungslöslichkeit von ITZ [2, 22]: 0,002 mg/ml
- Sättigungslöslichkeit von ITZ relativ zu der Sättigungslöslichkeit im Lösungsmittel [2, 22]: 0,69%
- Sättigungslöslichkeit von ITZ [2, 23]: 0,102 mg/ml
- Sättigungslöslichkeit von ITZ relativ zu der Sättigungslöslichkeit im Lösungsmittel [2, 23]: 34,36%
- Sättigungslöslichkeit von ITZ [2, 13]: 4,255 mg/ml
- Sättigungslöslichkeit von ITZ relativ zu der Sättigungslöslichkeit im Lösungsmittel [2, 13]: 100%
- Sättigungslöslichkeit von ITZ [2, 24]: 0,001 mg/ml
- Sättigungslöslichkeit von ITZ relativ zu der Sättigungslöslichkeit im Lösungsmittel [2, 24]: 0,02%
- Sättigungslöslichkeit von ITZ [2, 14]: 0,002 mg/ml
- Sättigungslöslichkeit von ITZ relativ zu der Sättigungslöslichkeit im Lösungsmittel [2, 14]: 0,05%
- Sättigungslöslichkeit von ITZ [2, 15]: 0,013 mg/ml
- Sättigungslöslichkeit von ITZ relativ zu der Sättigungslöslichkeit im Lösungsmittel [2, 15]: 0,29%
- Sättigungslöslichkeit von ITZ [2, 16]: 0,677 mg/ml
- Sättigungslöslichkeit von ITZ relativ zu der Sättigungslöslichkeit im Lösungsmittel [2, 16]: 15,91%
- Sättigungslöslichkeit von ITZ ([2]; in Tetrahydrofuran, Aceton und Ethanol): < 5 mg/mL
- Sättigungslöslichkeit von ITZ ([2]; in den Lösungsmitteln Ameisensäure und Eisessig): > 150 mg/mL
